Drawing on article PMC9696374, “Antiandrogenic Effects of a Polyphenol in Carex kobomugi through Inhibition of Androgen Synthetic Pathway and Downregulation of Androgen Receptor in Prostate Cancer Cell Lines” (International Journal of Molecular Sciences, 2022), this text covers IC50 for one compound.

The term IC50 denotes the concentration that gives 50% inhibition.

The assay addresses T1, dehydrogenase/reductase SDR family member 11 (DHRS11) (Homo sapiens, UniProt Q6UWP2).
T1 construct: Homogenous recombinant DHRS11
T1 sequence (Q6UWP2 31-260): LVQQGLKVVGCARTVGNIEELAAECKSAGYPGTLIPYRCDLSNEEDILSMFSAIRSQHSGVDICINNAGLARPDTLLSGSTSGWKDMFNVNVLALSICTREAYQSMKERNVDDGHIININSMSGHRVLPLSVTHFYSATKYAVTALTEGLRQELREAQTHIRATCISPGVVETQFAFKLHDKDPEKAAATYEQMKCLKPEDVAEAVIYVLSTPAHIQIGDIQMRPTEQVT
The assay can be described thus: reductase activity of recombinant DHRS11, NADPH absorbance at […] nm, isatin substrate. It counts as biochemical.

As to `Cc1c(O)cc(O)c2c(=O)cc(/C=C/c3ccc(O)cc3)oc12` [VI, 5,7-dihydroxy-8-methyl-2-[2-(4-hydroxyphenyl)ethenyl]-4H-1-benzopyran-4-one], the IC50 was 0.35 ± 0.03 µM.
